Data as given in US8685974B2 (Bayer CropScience AG, priority 2009, dated 2014).
Like-named read-outs stand apart in the source and are kept apart here. Marks after values point to notes of the source that are not given here.

Columns and labels:
Pyrenophora teres = assay: In vivo test on Pyrenophora teres (barley net blotch); settings: dose of 500 ppm; barley plants; grading 12 days after contamination
Description: In Vivo Test on Pyrenophora teres (Barley Net Blotch)
The active ingredients tested are prepared by homogenization in a mixture of acetone/Tween/DMSO, then diluted with water to obtain the desired active material concentration.
Barley plants (Plaisant variety), sown on a 50/50 peat soil-pozzolana substrate in starter cups and grown at 12° C., are treated at the 1-leaf stage (10 cm tall) by spraying with the active ingredient prepared as described above.
Plants, used as controls, are treated with an aqueous solution not containing the active material.
After 24 hours, the plants are contaminated by spraying them with an aqueous suspension of Pyrenophora teres spores (12,000 spores per ml). The spores are collected from a 12-day-old culture. The contaminated barley plants are incubated for 24 hours at about 20° C. and at 100% relative humidity, and then for 12 days at 80% relative humidity.
Grading is carried out 12 days after the contamination, in comparison with the control plants.

Alternaria solani = assay: Alternaria test (tomato) / protective; assay type: in vivo; settings: 500 ppm active compound, protective spray, evaluated 7 days after inoculation
Description: Alternaria Test (Tomato)/Protective
Solvent: 49 parts by weight of N,N-dimethylformamide
Emulsifier: 1 part by weight of alkylaryl polyglycol ether
To produce a suitable preparation of active compound, 1 part by weight of active compound is mixed with the stated amounts of solvent and emulsifier, and the concentrate is diluted with water to the desired concentration.
To test for protective activity, young tomato plants are sprayed with the preparation of active compound at the stated application rate. […] The plants then remain at 96% rel. atmospheric humidity and a temperature of 20° C.
Evaluation is carried out 7 days after the inoculation. 0% means an efficacy which corresponds to that of the control, whereas an efficacy of 100% means that no infection is observed.

Fusarium graminearum = assay type: cell-based; settings: 50 μM; for % Inhibition of DON/AcDON at 50 μM: 7 days at 28° C.

SMILES | protection (Pyrenophora teres) | log p (pH 2.7) | efficacy (Alternaria solani) | % Inhibition of fungal growth at 50 μM (Fusarium graminearum) | % Inhibition of DON/AcDON at 50 μM (Fusarium graminearum) | other results
Clc1ccc(-c2nn(C3CCCCC3)cc2-c2ccncc2)s1 [Example 11] | 89% | 2.54^[b] | – | – | – | –
CC(C)CC(C)n1cc(-c2ccncc2)c(-c2ccc(Cl)s2)n1 (stereo not drawn) [Example 13] | 94% | 2.7^[b] | – | – | – | –
CC(C)(C)Cn1cc(-c2ccncc2)c(-c2ccc(Cl)s2)n1 [Example 24] | 90% | 2.39^[b] | – | – | – | –
CC(C)Cn1cc(-c2ccncn2)c(-c2ccc(Cl)s2)n1 [Example 26] | 70% | 3.31^[b] | – | – | – | –
CCn1cc(-c2ccncc2)c(-c2ccc(Cl)s2)n1 [Example 57] | 95% | 1.5^[b] | – | – | – | logP value of the minor isomer (in parenthesis in column Isomer ratio [d]) (minor isomer, main value of the example measured by method [b], pH 2.7): (1.42)
CCC(C)n1cc(-c2ccnc(N(C(C)=O)C(C)=O)n2)c(-c2ccc(Cl)s2)n1 (stereo not drawn) [Example 150] | 95% | – | – | – | – | log p (pH 2.3): 3.72^[a]
CCC(C)n1cc(-c2ccnc(NC(C)=O)n2)c(-c2ccc(Cl)s2)n1 (stereo not drawn) [Example 151] | 90% | – | – | – | – | log p (pH 2.3): 3^[a]
CCCc1c(-c2ccnc(NC(=O)CC)c2)c(-c2sccc2C)nn1C [Example 166] | 80% | 2.29^[b] | – | – | – | logP value of the minor isomer (pH 2.7): 2.39^[b]); log p (pH 7.8): 2.71^[c];; logP value of the minor isomer (pH 7.8): (2.84^[c];
CC(C)C(=O)Nc1nccc(-c2cn(C(C)C)nc2-c2ccc(Cl)s2)n1 [Example 174] | 90% | – | – | – | – | log p (pH 2.3): 3.29^[a]
CC(=O)Nc1nccc(-c2cn(C(C)C)nc2-c2ccc(Cl)s2)n1 [Example 176] | 90% | – | – | – | – | log p (pH 2.3): 2.59^[a]
CC(C)n1cc(-c2ccnc(NC3CC3)n2)c(-c2ccc(Cl)s2)n1 [Example 177] | 95% | – | 90% | – | – | log p (pH 2.3): 2.59^[a]
CC(C)n1cc(-c2ccnc(NCC3CC3)n2)c(-c2ccc(Cl)s2)n1 [Example 183] | 70% | – | – | – | – | log p (pH 2.3): 3.02^[a]
CCC(C)n1cc(-c2ccnc(NC(C)COC)n2)c(-c2ccc(Cl)s2)n1 (stereo not drawn) [Example 186] | 70% | – | – | – | – | log p (pH 2.3): 3.21^[a]
CCC(C)n1cc(-c2ccnc(NCC3CC3)n2)c(-c2ccc(Cl)s2)n1 (stereo not drawn) [Example 187] | 70% | – | – | – | – | log p (pH 2.3): 3.41^[a]
C#CCNc1nccc(-c2cn(C(C)CC)nc2-c2ccc(Cl)s2)n1 (stereo not drawn) [Example 188] | 78% | – | – | – | – | log p (pH 2.3): 3.68^[a]
CCC(C)n1cc(-c2ccnc(N)n2)c(-c2ccc(Cl)s2)n1 (stereo not drawn) [Example 193] | 95% | – | – | – | – | log p (pH 2.3): 2.3^[a]
CCC(C)n1cc(-c2ccnc(NC3CC3)n2)c(-c2ccc(Cl)s2)n1 (stereo not drawn) [Example 195] | 95% | – | – | 94% | 99% | log p (pH 2.3): 2.9^[a]
CCn1cc(-c2ccnc(NC(=O)[C@H](C)O)c2)c(-c2ccc(Cl)s2)n1 [Example 206] | 90% | 2.37^[b] | 80% | – | – | –
C[C@H](O)C(=O)Nc1cc(-c2cn(C)nc2-c2ccc(Cl)s2)ccn1 [Example 207] | 70% | 2.11^[b] | – | – | – | –
Cn1cc(-c2ccnc(NC(=O)C(C)(C)O)c2)c(-c2ccc(Cl)s2)n1 [Example 208] | 80% | 2.26^[b] | – | – | – | –

SMILES | protection (Pyrenophora teres) | log p (pH 2.7) | efficacy (Alternaria solani) | % Inhibition of fungal growth at 50 μM (Fusarium graminearum) | % Inhibition of DON/AcDON at 50 μM (Fusarium graminearum) | other results
CCC(C)n1cc(-c2ccnc(NC(=O)C(C)(C)O)c2)c(-c2ccc(Cl)s2)n1 (stereo not drawn) [Example 210] | 70% | 4.24^[b] | 90% | – | – | –
CC(C)n1cc(-c2ccnc(NC(=O)C(C)(C)O)c2)c(-c2ccc(Cl)s2)n1 [Example 211] | 95% | 3.17^[b] | 90% | – | – | –
CCn1cc(-c2ccnc(NC(=O)C(C)(C)O)c2)c(-c2ccc(Cl)s2)n1 [Example 212] | 80% | 2.73^[b] | 70% | – | – | –
CCC(C)n1cc(-c2ccnc(NC(=O)c3ccsc3)c2)c(-c2ccc(Cl)s2)n1 (stereo not drawn) [Example 230] | 70% | 4.21^[b] | – | – | – | –
CC(C)n1cc(-c2ccnc(NC(=O)c3cccs3)c2)c(-c2ccc(Cl)s2)n1 [Example 241] | 80% | 3.96^[b] | – | – | – | –
CC(C)n1cc(-c2ccnc(NC(=O)Cc3ccccc3)c2)c(-c2ccc(Cl)s2)n1 [Example 245] | 100% | 3.94^[b] | – | – | – | –
CCOC(=O)Nc1cc(-c2cn(CC)nc2-c2ccc(Cl)s2)ccn1 [Example 265] | 70% | 3^[b] | – | 23% | 87% | –
CCn1cc(-c2ccnc(NC(=O)c3cccs3)c2)c(-c2ccc(Cl)s2)n1 [Example 267] | 80% | 3.48^[b] | – | 47% | 89% | –
CCOC(=O)Nc1cc(-c2cn(C)nc2-c2ccc(Cl)s2)ccn1 [Example 271] | 90% | 2.56^[b] | – | 20% | 94% | –
Cn1cc(-c2ccnc(NC(=O)c3ccccc3)c2)c(-c2ccc(Cl)s2)n1 [Example 272] | 70% | 3.09^[b] | – | – | – | –
Cn1cc(-c2ccnc(NC(=O)C3CCC3)c2)c(-c2ccc(Cl)s2)n1 [Example 275] | 90% | 2.52^[b] | – | 95% | 99% | –
CCC(CC)n1cc(-c2ccncc2)c(-c2ccc(F)s2)n1 [Example 380] | – | 2.04^[b] | 89% | 82% | 99% | logP value of the minor isomer (pH 2.7): (1.95)
Fc1ccc(-c2nn(CCCl)cc2-c2ccncc2)s1 [Example 381] | – | 1.45^[b] | 94% | 91% | 99% | logP value of the minor isomer (pH 2.7): (1.34)
O=C1OCCC1n1cc(-c2ccncc2)c(-c2ccc(Br)s2)n1 (stereo not drawn) [Example 385] | – | 1.52^[b] | 94% | 17% | 82% | –
C=CC(C)n1cc(-c2ccncc2)c(-c2ccc(Br)s2)n1 (stereo not drawn) [Example 389] | – | 2.03^[b] | 94% | 96% | 99% | logP value of the minor isomer (pH 2.7): (1.88)
CCn1cc(-c2ccncc2)c(-c2ccc(Br)s2)n1 [Example 390] | – | 1.6^[b] | 100% | 100% | 99% | logP value of the minor isomer (pH 2.7): (1.49)
FC(F)(F)Cn1cc(-c2ccncc2)c(-c2ccc(Br)s2)n1 [Example 391] | – | 1.98^[b] | 100% | 97% | 99% | –
CCC(C)n1nc(-c2ccc(Cl)s2)c(-c2ccncc2)c1Br (stereo not drawn) [Example 394] | – | 3.69^[b] | 94% | 92% | 100% | –
CC(C)Cn1nc(-c2ccc(Cl)s2)c(-c2ccncc2)c1Br [Example 395] | – | 3.58^[b] | 78% | 0% | 99% | –
